1 sequence from paper PMC12502564, “Evaluation of LLM-generated peptide as foundation template for discovery of effective encrypted AMPs against clinical superbugs” (Microbiology Spectrum, 2025) can be followed below.

The test system of data set [1] is CRAB. The experiment in a line: Outer membrane permeability assay (NPN). It counts as cell-based, carbapenem-resistant Acinetobacter baumannii. The following applies: 10^8 CFU mL^−1. The procedure:
NPN binds phospholipids in the periplasmic space, so NPN assay was carried out to analyze the effect of AMPs on the outer membrane permeabilization of bacteria ([65]). After CRAB was grown to the exponential phase, bacteria cells were harvested and washed three times in washing buffer of 5 mM glucose and 5 mM HEPES (1:1, pH = 7.2) and then re-adjusted to 10^8 CFU mL^−1 in same buffer. Bacterial suspensions (150 µL/well) were loaded into black-walled, clear-bottom 96-well plates with lids. Following bacterial loading, 50 µL of 10 µM NPN was introduced into each well, with 30-min pre-incubation for CRAB. Post-incubation fluorescence signals were acquired using 350 nm excitation and 420 nm emission wavelengths. Compounds (10 µL) were then administered to achieve 1 × MIC/10 × MIC -equivalent final concentrations in the dye-loaded bacterial suspensions. Real-time fluorescence monitoring was performed with continuous acquisition during the first 10 min, followed by measurements at 10-min intervals. Negative controls received 10 µL sterile water in lieu of antimicrobial peptides while maintaining equivalent pre-incubation conditions. All experimental conditions were executed with three biological replicates.

A further data set concerns MRSA 2210187. The following applies: 10% fetal bovine serum, room temperature, 1–6 h, then MIC assay, triplicate.
For data set [2], the system named is CRAB. The experiment in a line: Biofilm formation inhibition assay (crystal violet). It counts as cell-based, carbapenem-resistant Acinetobacter baumannii. The following applies: 1/2 × MIC, 24 h, OD570. The procedure: The crystal violet staining method ([66]) was used to determine the inhibitory activity of the compounds against the biofilm formation of CRAB. The steps were as follows: prepare a bacterial solution (10^6 CFU mL^−1), mix it with different final concentrations of the compound (1/2 × MIC, 1 × MIC, 2 × MIC, and 4 × MIC), and culture it for 24 h. After discarding the supernatant, wash with PBS, add anhydrous methanol to fix the biofilm, and then stain it with crystal violet for 60 min after drying. After washing, dissolve the biofilm with 33% glacial acetic acid, and measure OD570. Three parallel experiments were performed, and the biofilm formation inhibition rate was calculated by the following formula:
(3) Biofilm formation inhibition rate (%)=(1−OD(sample)− OD(blank)/OD(negative)− OD(blank))×100%

In a further data set the test system is S. aureus ATCC25923. It counts as cell-based, Staphylococcus aureus. On the procedure: The MIC of all peptides was determined using the microdilution broth method in a 96-well plate. Peptides were dissolved in the DMSO with an initial concentration of 12,800 µg mL^−1. And cells of eight strains were separately suspended in the MHB at a density of approximately 10^5 CFU mL^−1. In the first column of the 96-well plate, 16 µL of peptide and 184 µL of MHB were added to each well to achieve a final concentration of 1,024 µg mL^−1. One-hundred microliters of MHB was added to each of the remaining wells. Then the first column of liquid was mixed well and diluted to the 12th column using the twofold dilution method. One-hundred microliters of prepared bacterial solution was added to all wells, and the 96-well plate was incubated at 37°C for 18–24 h. The MIC was defined as the concentration of the peptide in the well just preceding the first well showing visible turbidity. All experiments were performed in triplicate to ensure reliability.

No end group written: not given here.

Method for MRSA 2210187: For serum sensitivity experiments, the peptide to be tested was incubated in 10% fetal bovine serum at room temperature for 1–6 h. After deactivation, the MICs of peptides against CRAB 2210186 and MRSA 2210187 were measured using the MIC assay. All experiments were performed in triplicate to ensure reliability.

Take WLKRILKWIGNKLKW [PL-15]: the “NPN fluorescence (outer membrane permeability)” value was “marginal increase in fluorescence intensity” in the data set with CRAB [1] (1 × MIC); “rapid and significant increase in fluorescence intensity” in the data set on CRAB [1] (10 × MIC). Besides, in the data set with MRSA 2210187, the “fold change in MIC after incubation in serum” value is on record as “maximum twofold increase”. In the data set with CRAB [2], the biofilm formation inhibition entry is “moderate biofilm inhibition”. In addition, the MIC entry against S. aureus ATCC25923 was “lower than 11 µg mL^−1”.
